# In patent publication US6914045B2, “Glycopeptide antibiotics” (Wyeth Holdings Corporation, priority 2001, dated 2005):
# Experiments:
# Experiment in all cases: in vitro antibacterial evaluation, MIC by broth dilution
# Type in all cases: cell-based
# [1] = test system: Enterococcus sp.; settings: broth dilution, 18 hours at 35° C.
# Outline: (§1)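 Broth dilution per NCCLS standard M7-A2 in Muller-Hinton II […], with an inoculum of 5×10^5 CFU/mL and antibiotic spanning 64-0.06 μg/mL. The MIC is the lowest concentration that inhibits growth of the organism.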
# [2] = test system: Staphylococcus sp.; settings: broth dilution, 18 hours at 35° C.; for MIC Staphylococcus aureus (GC 1131): strain GC 1131; for MIC Staphylococcus aureus (ATCC 29213): strain ATCC 29213; for MIC Staphylococcus aureus (GC 3051): strain GC 3051; for MIC Staphylococcus aureus (GC 3053): strain GC 3053; for MIC Staphylococcus aureus (GC 4541): strain GC 4541; for MIC Staphylococcus aureus (GC 4542): strain GC 4542; for MIC Staphylococcus aureus-SMITH (GC 4543): strain GC 4543; for MIC Staphylococcus aureus (GC 4544): strain GC 4544; for MIC Staphylococcus aureus (GC 4545): strain GC 4545; for MIC Staphylococcus haemolyticus (GC 4546): strain GC 4546; for MIC Coagulase Negative Staphylococcus (GC 4547): strain GC 4547; for MIC Coagulase Negative Staphylococcus (GC 4548): strain GC 4548; for MIC Coagulase Negative Staphylococcus (GC 4549): strain GC 4549; for MIC Coagulase Negative Staphylococcus (GC 4551): strain GC 4551
# Outline: as §1
# [3] = test system: Streptococcus sp.; settings: broth dilution, 18 hours at 35° C.
# Outline: as §1
# [4] = test system: Escherichia coli; settings: 18 hours at 35° C.
# [5] = inoculum 5×10^5 CFU/mL, strain ATCC 29212
# [6] = inoculum 5×10^5 CFU/mL, strain GC 2242
# [7] = inoculum 5×10^5 CFU/mL, strain GC 2243
# [8] = inoculum 5×10^5 CFU/mL, strain GC 2691
# [9] = inoculum 5×10^5 CFU/mL, strain GC 3059
# [10] = inoculum 5×10^5 CFU/mL, strain GC 4552
# [11] = inoculum 5×10^5 CFU/mL, strain GC 4553
# [12] = inoculum 5×10^5 CFU/mL, strain GC 4554
# [13] = inoculum 5×10^5 CFU/mL, strain GC 4556
# [14] = inoculum 5×10^5 CFU/mL, strain GC 4557
# [15] = inoculum 5×10^5 CFU/mL, strain GC 4558
# [16] = inoculum 5×10^5 CFU/mL, strain GC 6189
# [17] = inoculum 5×10^5 CFU/mL, strain ATCC 6301
# [18] = inoculum 5×10^5 CFU/mL, strain GC 1894
# [19] = inoculum 5×10^5 CFU/mL, strain GC 4563
# [20] = inoculum 5×10^5 CFU/mL, strain GC 4564
# [21] = inoculum 5×10^5 CFU/mL, strain GC 4565
compound,measurement,setting,value
CCCC(C)C1OCC2OC(OC3C(CO)OC(Oc4ccc(CC5NC(=O)C(C(C)c6ccc(Cl)cc6)NC(=O)CNC(=O)C(CO)NC(=O)C(C(O)C6CNC(=N)N6C6OC(CO)C(O)C(O)C6O)NC(=O)C(C(O)C6CNC(=N)N6)NC5=O)cc4)C(O)C3O)C(O)C(O)C2O1 (centres unmarked) [Example 194],MIC Enterococcus avium (GC 4558),[1],2 µg/mL
same,MIC Enterococcus faecalis (ATCC 29212),[1],2 µg/mL
same,MIC Enterococcus faecalis (GC 2242),[1],1 µg/mL
same,MIC Enterococcus faecalis (GC 2691),[1],2 µg/mL
same,MIC Enterococcus faecalis (GC 3059),[1],1 µg/mL
same,MIC Enterococcus faecalis (GC 4552),[1],1 µg/mL
same,MIC Enterococcus faecalis (GC 4553),[1],2 µg/mL
same,MIC Enterococcus faecalis (GC 4554),[1],1 µg/mL
same,MIC Enterococcus faecalis (GC 6189),[1],0.5 µg/mL
same,MIC Enterococcus faecium (GC 2243),[1],1 µg/mL
same,MIC Enterococcus faecium (GC 4556),[1],1 µg/mL
same,MIC Enterococcus faecium (GC 4557),[1],2 µg/mL
same,MIC Enterococcus faecalis (ATCC 29212),[1]; [5],2 µg/mL
same,MIC Enterococcus faecalis (GC 2242),[1]; [6],1 µg/mL
same,MIC Enterococcus faecium (GC 2243),[1]; [7],1 µg/mL
same,MIC Enterococcus faecalis (GC 2691),[1]; [8],2 µg/mL
same,MIC Enterococcus faecalis (GC 3059),[1]; [9],1 µg/mL
same,MIC Enterococcus faecalis (GC 4552),[1]; [10],1 µg/mL
same,MIC Enterococcus faecalis (GC 4553),[1]; [11],2 µg/mL
same,MIC Enterococcus faecalis (GC 4554),[1]; [12],1 µg/mL
same,MIC Enterococcus faecium (GC 4556),[1]; [13],1 µg/mL
same,MIC Enterococcus faecium (GC 4557),[1]; [14],2 µg/mL
same,MIC Enterococcus avium (GC 4558),[1]; [15],2 µg/mL
same,MIC Enterococcus faecalis (GC 6189),[1]; [16],0.5 µg/mL
same,MIC Staphylococcus aureus (GC 1131),[2]; inoculum 5×10^5 CFU/mL,1 µg/mL
same,MIC Staphylococcus aureus (ATCC 29213),[2],0.5 µg/mL
same,MIC Staphylococcus aureus (GC 1131),[2],1 µg/mL
same,MIC Staphylococcus aureus (GC 3051),[2],1 µg/mL
same,MIC Staphylococcus aureus (GC 3053),[2],1 µg/mL
same,MIC Staphylococcus aureus (GC 4541),[2],0.5 µg/mL
same,MIC Staphylococcus aureus (GC 4542),[2],0.5 µg/mL
same,MIC Staphylococcus aureus-SMITH (GC 4543),[2],0.5 µg/mL
same,MIC Staphylococcus aureus (GC 4544),[2],2 µg/mL
same,MIC Staphylococcus aureus (GC 4545),[2],1 µg/mL
same,MIC Staphylococcus haemolyticus (GC 4546),[2],0.5 µg/mL
same,MIC Coagulase Negative Staphylococcus (GC 4547),[2],1 µg/mL
same,MIC Coagulase Negative Staphylococcus (GC 4548),[2],0.5 µg/mL
same,MIC Coagulase Negative Staphylococcus (GC 4549),[2],0.5 µg/mL
same,MIC Coagulase Negative Staphylococcus (GC 4551),[2],1 µg/mL
same,MIC Coagulase Negative Staphylococcus (GC 6257),[2]; strain GC 6257,0.5 µg/mL
same,MIC Streptococcus agalactiae (GC 4564),[3],<0.06 µg/mL
same,MIC Streptococcus pneumoniae (ATCC 6301),[3],0.25 µg/mL
same,MIC Streptococcus pneumoniae (GC 1894),[3],0.12 µg/mL
same,MIC Streptococcus pneumoniae (GC 4565),[3],<0.06 µg/mL
same,MIC Streptococcus pyogenes (GC 4563),[3],<0.06 µg/mL
same,MIC Streptococcus pneumoniae (ATCC 6301),[3]; [17],0.25 µg/mL
same,MIC Streptococcus pneumoniae (GC 1894),[3]; [18],0.12 µg/mL
same,MIC Streptococcus pyogenes (GC 4563),[3]; [19],<0.06 µg/mL
same,MIC Streptococcus agalactiae (GC 4564),[3]; [20],<0.06 µg/mL
same,MIC Streptococcus pneumoniae (GC 4565),[3]; [21],<0.06 µg/mL
same,MIC Escherichia coli (GC 4559),[4],32 µg/mL
same,MIC Escherichia coli (GC 4560),[4],2 µg/mL
CC(c1ccccc1)C1NC(=O)CNC(=O)C(CO)NC(=O)C(C(O)C2CNC(=N)N2C2OC(CO)C(O)C(O)C2O)NC(=O)C(C(O)C2CNC(=N)N2)NC(=O)C(Cc2ccc(OC3OC(CO)C(OC4OC5COC6(CCCCC6(C)C)OC5C(O)C4O)C(O)C3O)cc2)NC1=O (centres unmarked) [Example 205],MIC Enterococcus avium (GC 4558),[1],4 µg/mL
same,MIC Enterococcus faecalis (ATCC 29212),[1],2 µg/mL
same,MIC Enterococcus faecalis (GC 2242),[1],4 µg/mL
same,MIC Enterococcus faecalis (GC 2691),[1],4 µg/mL
same,MIC Enterococcus faecalis (GC 3059),[1],2 µg/mL
same,MIC Enterococcus faecalis (GC 4552),[1],4 µg/mL
same,MIC Enterococcus faecalis (GC 4553),[1],2 µg/mL
same,MIC Enterococcus faecalis (GC 4554),[1],4 µg/mL
same,MIC Enterococcus faecalis (GC 6189),[1],2 µg/mL
same,MIC Enterococcus faecium (GC 2243),[1],2 µg/mL
same,MIC Enterococcus faecium (GC 4556),[1],2 µg/mL
same,MIC Enterococcus faecium (GC 4557),[1],4 µg/mL
same,MIC Enterococcus faecalis (ATCC 29212),[1]; [5],2 µg/mL
same,MIC Enterococcus faecalis (GC 2242),[1]; [6],4 µg/mL
same,MIC Enterococcus faecium (GC 2243),[1]; [7],2 µg/mL
same,MIC Enterococcus faecalis (GC 2691),[1]; [8],4 µg/mL
same,MIC Enterococcus faecalis (GC 3059),[1]; [9],2 µg/mL
same,MIC Enterococcus faecalis (GC 4552),[1]; [10],4 µg/mL
same,MIC Enterococcus faecalis (GC 4553),[1]; [11],2 µg/mL
same,MIC Enterococcus faecalis (GC 4554),[1]; [12],4 µg/mL
same,MIC Enterococcus faecium (GC 4556),[1]; [13],2 µg/mL
same,MIC Enterococcus faecium (GC 4557),[1]; [14],4 µg/mL
same,MIC Enterococcus avium (GC 4558),[1]; [15],4 µg/mL
same,MIC Enterococcus faecalis (GC 6189),[1]; [16],2 µg/mL
same,MIC Staphylococcus aureus (GC 1131),[2]; inoculum 5×10^5 CFU/mL,2 µg/mL
same,MIC Staphylococcus aureus (ATCC 29213),[2],2 µg/mL
same,MIC Staphylococcus aureus (GC 1131),[2],2 µg/mL
same,MIC Staphylococcus aureus (GC 3051),[2],2 µg/mL
same,MIC Staphylococcus aureus (GC 3053),[2],2 µg/mL
same,MIC Staphylococcus aureus (GC 4541),[2],2 µg/mL
same,MIC Staphylococcus aureus (GC 4542),[2],2 µg/mL
same,MIC Staphylococcus aureus-SMITH (GC 4543),[2],2 µg/mL
same,MIC Staphylococcus aureus (GC 4544),[2],2 µg/mL
same,MIC Staphylococcus aureus (GC 4545),[2],2 µg/mL
same,MIC Staphylococcus haemolyticus (GC 4546),[2],2 µg/mL
same,MIC Coagulase Negative Staphylococcus (GC 4547),[2],2 µg/mL
same,MIC Coagulase Negative Staphylococcus (GC 4548),[2],1 µg/mL
same,MIC Coagulase Negative Staphylococcus (GC 4549),[2],1 µg/mL
same,MIC Coagulase Negative Staphylococcus (GC 4551),[2],2 µg/mL
same,MIC Streptococcus agalactiae (GC 4564),[3],<0.12 µg/mL
same,MIC Streptococcus pneumoniae (ATCC 6301),[3],<0.12 µg/mL
same,MIC Streptococcus pneumoniae (GC 1894),[3],<0.12 µg/mL
same,MIC Streptococcus pneumoniae (GC 4565),[3],<0.12 µg/mL
same,MIC Streptococcus pyogenes (GC 4563),[3],<0.12 µg/mL
same,MIC Streptococcus pneumoniae (ATCC 6301),[3]; [17],<0.12 µg/mL
same,MIC Streptococcus pneumoniae (GC 1894),[3]; [18],<0.12 µg/mL
same,MIC Streptococcus pyogenes (GC 4563),[3]; [19],<0.12 µg/mL
same,MIC Streptococcus agalactiae (GC 4564),[3]; [20],<0.12 µg/mL
same,MIC Streptococcus pneumoniae (GC 4565),[3]; [21],<0.12 µg/mL
same,MIC Escherichia coli (ATCC 25922),[4],64 µg/mL
same,MIC Escherichia coli (GC 4559),[4],128 µg/mL
same,MIC Escherichia coli (GC 4560),[4],1 µg/mL
